In US20260355165A1, “2,3,4,9-TETRAHYDRO-1H-PYRIDO[3,4-B]INDOLE DERIVATIVES AS ESTROGEN RECEPTOR MODULATORS FOR THE TREATMENT OF CANCER” (Olema Pharmaceuticals, Inc., priority 2022, published 2026):

Biological target: T1, estrogen receptor (Homo sapiens, UniProt P03372)
T1 construct: endogenous in cells; host or cells: ECC-1 cells
T1 sequence (P03372 1-595): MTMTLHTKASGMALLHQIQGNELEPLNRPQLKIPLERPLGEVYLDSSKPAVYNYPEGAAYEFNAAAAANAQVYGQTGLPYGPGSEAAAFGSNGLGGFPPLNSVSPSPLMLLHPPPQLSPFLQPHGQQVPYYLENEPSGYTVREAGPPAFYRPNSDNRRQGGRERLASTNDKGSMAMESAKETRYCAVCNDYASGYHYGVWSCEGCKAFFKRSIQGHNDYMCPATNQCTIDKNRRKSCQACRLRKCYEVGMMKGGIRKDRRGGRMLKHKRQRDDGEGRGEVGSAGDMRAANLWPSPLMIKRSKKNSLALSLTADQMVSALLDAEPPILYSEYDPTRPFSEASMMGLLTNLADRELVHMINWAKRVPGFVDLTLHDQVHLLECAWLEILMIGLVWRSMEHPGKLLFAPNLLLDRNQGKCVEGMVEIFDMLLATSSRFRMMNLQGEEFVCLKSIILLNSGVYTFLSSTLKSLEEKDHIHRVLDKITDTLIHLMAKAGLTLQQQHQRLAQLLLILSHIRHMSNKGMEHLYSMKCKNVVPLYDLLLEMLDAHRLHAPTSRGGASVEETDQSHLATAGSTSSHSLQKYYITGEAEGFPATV
Test: AP assay (alkaline phosphatase activity in ECC-1 cells), agonist mode (absence of E2) and antagonist mode (presence of 500 pM E2)
Assay type: cell-based
Conditions: for Activity (estrogen receptor modulation, e.g., agonism and antagonism): 3 days, AP activity normalized to 500 pM E2 alone, agonist and antagonist mode combined; for IC50: AP assay; for IC50 / reduction in the E2-normalized signal in the AP assay (antagonist mode): antagonist mode, 500 pM E2, 3 days; for increase in E2-normalized signal in the AP assay (agonist mode): absence of E2, 3 days
Outline: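 ECC-1 cells in hormone-depleted medium treated with compounds for 3 days, without E2 (agonist mode) or with 500 pM E2 (antagonist mode). AP activity read at 405 nm after p-nitrophenyl phosphate substrate, 40 min at 42 °C. Signal normalized to 500 pM E2 alone.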

Compound | Activity (estrogen receptor modulation, e.g., agonism and antagonism) | IC50 [nM] | increase in E2-normalized signal in the AP assay (agonist mode) | reduction in the E2-normalized signal in the AP assay (antagonist mode) [%]
C[C@@H]1Cc2c([nH]c3ccccc23)[C@@H](c2ccc3sc(CN4CC(CF)C4)nc3c2)N1CC(C)(C)F [Compound I-103, 2-[[3-(fluoromethyl)azetidin-1-yl]methyl]-5-[(1R,3R)-2-(2-fluoro-2-methyl-propyl)-3-methyl-1,3,4,9-tetrahydropyrido[3,4-b]indol-1-yl]-1,3-benzothiazole] | + (estrogen receptor agonism having (i) at least 80% increase in the E2-normalized signal in the AP assay (agonist mode) and (ii) no more than 80% reduction in the E2-normalized signal in the AP assay (antagonist mode)) |  |  | 
C[C@@H]1Cc2c([nH]c3ccccc23)[C@@H](c2ccc3c(c2)nc(CN2CC(CF)C2)[s+]3[O-])N1CC(C)(C)F (stereo partly drawn) [Compound I-104, 2-[[3-(fluoromethyl)azetidin-1-yl]methyl]-5-[(1R,3R)-2-(2-fluoro-2-methyl-propyl)-3-methyl-1,3,4,9-tetrahydropyrido[3,4-b]indol-1-yl]-1,3-benzothiazole 1-oxide] | + (estrogen receptor agonism having (i) at least 80% increase in the E2-normalized signal in the AP assay (agonist mode) and (ii) no more than 80% reduction in the E2-normalized signal in the AP assay (antagonist mode)) |  |  | 
C[C@@H]1Cc2c([nH]c3ccccc23)[C@@H](c2ccc3[nH]c(CN4CC(CF)C4)cc3c2)N1CC(F)(F)C(F)F [Compound I-109, (1R,3R)-1-[2-[[3-(fluoromethyl)azetidin-1-yl]methyl]-1H-indol-5-yl]-3-methyl-2-(2,2,3,3-tetrafluoropropyl)-1,3,4,9-tetrahydropyrido[3,4-b]indole] |  | < 398 | no more than 10% | ≥ 10
C[C@@H]1Cc2c([nH]c3ccccc23)[C@@H](c2ccc3[nH]c(CN4CC(CF)C4)cc3c2)N1CC(F)(F)C(F)(F)F [Compound I-110, (1R,3R)-1-[2-[[3-(fluoromethyl)azetidin-1-yl]methyl]-1H-indol-5-yl]-3-methyl-2-(2,2,3,3,3-pentafluoropropyl)-1,3,4,9-tetrahydropyrido[3,4-b]indole] |  | < 398 | no more than 10% | ≥ 10
